Results published in patent US7030137B2, “Substituted thiophenes with antibacterial activity” (Replidyne, Inc., priority 2003, dated 2006).
Values after ≈ are worked out from the molar mass of the structure shown.

Assays:
S. pneumo = assay: MIC S. pneumo (standard MIC assay modified by inclusion of cyclodextrin); format: cell-based; conditions: Streptococcus pneumoniae
Method: (§1) Compounds of the present invention were assayed for antibacterial activity against a range of pathogenic organisms (strains of S aureus, S pneumoniae, E faecalis, H influenzae and M catarrhalis) in a standard MIC assay modified by the inclusion of cyclodextrin, to assist with solubility.

[1] = target: T1, recombinant H. influenzae MRS (Haemophilus influenzae, UniProt P43828); assay: Enzyme Inhibition (H. influenzae MRS) aminoacylation assay; format: biochemical; conditions: read-out: IC50 against H. influenzae MRS
T1 construct: made in house
T1 sequence (P43828 whole entry): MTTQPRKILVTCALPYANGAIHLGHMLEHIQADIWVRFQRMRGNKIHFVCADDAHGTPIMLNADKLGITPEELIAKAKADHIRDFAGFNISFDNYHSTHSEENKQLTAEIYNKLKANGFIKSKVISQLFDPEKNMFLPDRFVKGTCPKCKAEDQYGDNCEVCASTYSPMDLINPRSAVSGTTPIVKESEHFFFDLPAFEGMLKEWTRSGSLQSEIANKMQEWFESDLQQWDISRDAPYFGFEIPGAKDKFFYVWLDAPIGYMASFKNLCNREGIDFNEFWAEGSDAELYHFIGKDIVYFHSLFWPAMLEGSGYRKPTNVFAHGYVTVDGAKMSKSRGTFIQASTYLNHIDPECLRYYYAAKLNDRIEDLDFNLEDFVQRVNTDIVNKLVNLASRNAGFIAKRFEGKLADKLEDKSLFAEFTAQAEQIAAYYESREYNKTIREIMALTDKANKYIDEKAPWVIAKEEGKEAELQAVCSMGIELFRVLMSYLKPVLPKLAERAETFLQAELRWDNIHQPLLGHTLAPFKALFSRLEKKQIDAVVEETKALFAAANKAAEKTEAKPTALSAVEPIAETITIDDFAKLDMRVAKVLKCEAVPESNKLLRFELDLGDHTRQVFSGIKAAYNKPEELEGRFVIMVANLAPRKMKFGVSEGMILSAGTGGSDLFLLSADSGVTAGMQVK
Method: 2. Enzyme Inhibition (H. influenzae MRS)—aminoacylation assay
Compounds of the present invention may be assayed for their ability to inhibit the enzyme methionyl tRNA synthetase (MRS), using recombinant H. influenzae MRS(R. D. Fleischmann et al., Science, 269, 496–512, 1995), as follows:
The reaction is started by adding 20 μl appropriately diluted pure enzyme (pre-incubated with inhibitor) to 25 μl reaction mix for 10 min at room temperature. The reaction is terminated by the addition of 150 μl 167 mM sodium citrate, pH 2.15 containing phosphodiesterase (PDE) SPA beads (0.833 mg/ml). The binding of the radiolabelled product to the bead brings the isotope into close enough proximity to allow radiation from the tritium to excite the scintillant within the bead. Any unbound radiolabel is not close enough to the scintillant to allow this energy transfer, so no signal is generated. Following termination of the reaction, plates are spun at 2500 rpm for 5 min in a Mistral 3000E plate centrifuge (or alternatively allowed to stand for 1 hour). The assay is conducted in 96-well Optiplates (Packard). Plates are counted on a TopCount. (Packard 96 well counter).
Mixed E. coli MRE 600 tRNA and ATP were purchased from Boehringer-Mannheim, L-[methyl-^3H]methionine and phosphodiesterase scintillation proximity (SPA) beads from Amersham Pharmacia Biotech and other reagents from Sigma.

H. influenzae = assay: MIC H. influenzae (standard MIC assay modified by inclusion of cyclodextrin); format: cell-based; conditions: Haemophilus influenzae
Method: as §1

[2] = system: S. aureus, S. pneumoniae, and E. faecalis; assay: MIC against some strains of gram positive pathogens; format: cell-based
Method: as §1

S. aureus = assay: MIC S. aureus (standard MIC assay modified by inclusion of cyclodextrin); format: cell-based; conditions: Staphylococcus aureus
Method: as §1

[3] = system: M catarrhalis and H. influenzae; assay: MIC against some strains of gram negative pathogens; format: cell-based; conditions: Haemophilus influenzae
Method: as §1

MIC (S. pneumo)	IC50 [1]	MIC (H. influenzae)	MIC [2]	MIC (S. aureus)	MIC [3]	Compound
0.25 µg/mL (≈ 0.539 µM)	≤ 200 nM	8 µg/mL (≈ 17.2 µM)	0.06 to 0.5 µg/mL (≈ 0.129 to 1.08 µM)	0.13 µg/mL (≈ 0.28 µM)	0.13 to 8 µg/mL (≈ 0.28 to 17.2 µM)	Cc1c(CNCCCNc2nc3cscc3[nH]2)sc(Br)c1Br [Example 18, N-(4,5-Dibromo-3-methylthiophen-2-ylmethyl)-N′-(1H-thieno[3,4-d]imidazol-2-yl)propane-1,3-diamine]
0.25 µg/mL (≈ 0.582 µM)	≤ 200 nM	8 µg/mL (≈ 18.6 µM)	0.06 to 0.5 µg/mL (≈ 0.14 to 1.16 µM)	0.06 µg/mL (≈ 0.14 µM)	0.13 to 8 µg/mL (≈ 0.303 to 18.6 µM)	C=C(F)c1sc(CNCCCNc2nc3cscc3[nH]2)c(C)c1Br [Example 21, N-(4-bromo-5-(1-fluorovinyl)-3-methylthiophen-2-ylmethyl)-N′-(1H-thieno[3,4-d]imidazol-2-yl)propane-1,3-diamine]
